Laboratory results: patent US20220324865A1 (Bayer Aktiengesellschaft, priority 2018, published 2022)

biological target: T1, human EP3 receptor (Homo sapiens, UniProt P43115); assay: Cellular in vitro assay for determining EP3 receptor activity (human EP3 cell line, sulprostone-stimulated calcium luminescence); format: cell-based; settings: CHO cells expressing human EP3 and mitochondrial Clytin; antagonist mode, sulprostone at EC50; read-out: EP3 CHO mtCLY ANTAG IC50
T1 construct: expressed in transfected cells; host or cells: CHO K1 (Chinese Hamster Ovary), stably co-transfected with Galpha16 and mitochondrial clytin
T1 sequence (P43115 1-390): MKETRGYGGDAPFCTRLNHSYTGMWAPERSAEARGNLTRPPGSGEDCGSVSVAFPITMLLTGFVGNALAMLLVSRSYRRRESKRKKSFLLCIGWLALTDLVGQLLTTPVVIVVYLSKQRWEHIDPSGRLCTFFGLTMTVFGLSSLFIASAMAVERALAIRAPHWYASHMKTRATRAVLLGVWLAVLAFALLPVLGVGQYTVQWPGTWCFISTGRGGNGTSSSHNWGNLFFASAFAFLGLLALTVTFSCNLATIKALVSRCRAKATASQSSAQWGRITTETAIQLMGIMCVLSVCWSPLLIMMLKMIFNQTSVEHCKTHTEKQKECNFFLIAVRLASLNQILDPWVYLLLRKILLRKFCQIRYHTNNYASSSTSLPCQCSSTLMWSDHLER
Summary of the method: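 Antagonist activity was measured as inhibition of the luminescent calcium signal elicited by EC50 sulprostone, following 10 min compound pretreatment. The cell line was recombinant CHO K1 co-expressing human EP3, Gα16 and the photoprotein Clytin, reconstituted with coelenterazine.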

Row | Structure (SMILES) | IC50
1 | O=C(N[C@H](CN1CC(F)C1)C1CC1)c1nn2cc(-c3ccc4ccccc4c3)[nH]c(=O)c2c1C(F)(F)F [6-513] | 7.1 nM
2 | Cc1ccc(-c2cn3nc(C(=O)N[C@H](C)c4ccc(F)cc4)c(C(C)C)c3c(=O)[nH]2)cc1C [Example 1-90, 6-(3,4-Dimethylphenyl)-N-[(1R)-1-(4-fluorophenyl)ethyl]-4-oxo-3-(propan-2-yl)-4,5-dihydropyrazolo[1,5-a]pyrazine-2-carboxamide] | 0.515 nM
3 | Cc1cc(-c2cn3nc(C(=O)NC4(c5ccccc5)CCOCC4)c(C(F)(F)F)c3c(=O)[nH]2)ccc1Cl [6-230] | 1.6 nM
4 | CCc1ccc(C(C)NC(=O)c2nn3c(C)c(-c4ccc5ccccc5c4)[nH]c(=O)c3c2C)cc1 (centres unmarked) [Example 3-26, N-[1-(4-Ethylphenyl)ethyl]-3,7-dimethyl-6-(2-naphthyl)-4-oxo-5H-pyrazolo[1,5-a]pyrazine-2-carboxamide] | 4.15 nM
5 | Cc1ccc(-c2cn3nc(C(=O)NC4(c5ccc(F)cc5)CN(CC(F)(F)F)C4)c(C(F)(F)F)c3c(=O)[nH]2)cc1Cl [6-201] | 3.05 nM
6 | O=C(N[C@@H](c1ccc(F)cc1)C(F)(F)CO)c1nn2cc(-c3ccc(C(F)(F)F)c(F)c3F)[nH]c(=O)c2c1C1CC1 [6-601] | 4.25 nM
7 | Cc1ccc(-c2cn3nc(C(=O)NC(CO)C(F)(F)F)c(C(F)(F)F)c3c(=O)[nH]2)cc1Cl (racemic) [6-161] | 2.3 nM
8 | Cc1ccc(-c2cn3nc(C(=O)NCC(N)C(F)(F)F)c(C4CC4)c3c(=O)[nH]2)cc1C (single isomer, unassigned) [6-432] | 1.1 nM
9 | Cc1c(C(=O)NCCn2ccc(C3CC3)n2)nn2c(C)c(-c3ccc4ccccc4c3)[nH]c(=O)c12 [Example 3-1, N-[2-(3-Cyclopropyl-1H-pyrazol-1-yl)ethyl]-3,7-dimethyl-6-(naphthalen-2-yl)-4-oxo-4,5-dihydropyrazolo[1,5-a]pyrazine-2-carboxamide] | 0.79 nM
10 | COCc1c(C(=O)N[C@@H](c2ccc(F)cc2)C(F)(F)CO)nn2cc(-c3ccc(C)c(Cl)c3)[nH]c(=O)c12 [6-626] | 1.02 nM
11 | Cc1cccc2ncc(-c3cn4nc(C(=O)NCc5cc[nH]n5)c(C(C)C)c4c(=O)[nH]3)cc12 [Example 4-14, 6-(5-Methylquinolin-3-yl)-4-oxo-3-(propan-2-yl)-N-[(1H-pyrazol-3-yl)methyl]-4,5-dihydropyrazolo[1,5-a]pyrazine-2-carboxamide] | 2.5 nM
12 | Cc1ccc(-c2cn3nc(C(=O)NC(CO)C(F)(F)F)c(C4CC4)c3c(=O)[nH]2)cc1C(F)(F)F (racemic) [6-248] | 2.45 nM
13 | Cc1ccc(-c2cn3nc(C(=O)NCC(N)C(F)(F)F)c(C(F)(F)F)c3c(=O)[nH]2)cc1C (racemic) [6-118] | 5.6 nM
14 | Cc1cccc2ncc(-c3cn4nc(C(=O)NC5(C)CCS(=O)(=O)C5)c(C(C)C)c4c(=O)[nH]3)cc12 (centres unmarked) [Example 4-17, 3-Isopropyl-N-(3-methyl-1,1-dioxothiolan-3-yl)-6-(5-methyl-3-quinolyl)-4-oxo-5H-pyrazolo[1,5-a]pyrazine-2-carboxamide] | 2.45 nM
15 | Cc1cc(-c2cn3nc(C(=O)NCC(O)C(F)(F)F)c(C4CC4)c3c(=O)[nH]2)ccc1Cl (single isomer, unassigned) [6-313] | 1.65 nM
16 | Cc1cccc2ncc(-c3cn4nc(C(=O)NC(c5ccccc5)C(F)F)c(C(C)C)c4c(=O)[nH]3)cc12 (centres unmarked) [Example 4-68, N-(2,2-Difluoro-1-phenylethyl)-3-isopropyl-6-(5-methyl-3-quinolyl)-4-oxo-5H-pyrazolo[1,5-a]pyrazine-2-carboxamide] | 3 nM
17 | Cc1cc(-c2cn3nc(C(=O)NCCN(CC(F)F)C4CC4)c(C4CC4)c3c(=O)[nH]2)ccc1C(F)(F)F [6-128] | 9.25 nM
18 | COc1ccc(C2(NC(=O)c3cc4c(=O)[nH]c(-c5ccc6ccccc6c5)cn4n3)CN(C)C2)cn1 [6-63] | 7.1 nM
19 | Cc1ccc(-c2cn3nc(C(=O)NCC(O)C(F)(F)F)c(C4CC4)c3c(=O)[nH]2)cc1F (single isomer, unassigned; enantiomer2) [Example 1-161, 3-Cyclopropyl-6-(3-fluoro-4-methylphenyl)-4-oxo-N-(3,3,3-trifluoro-2-hydroxpropyl)-4,5-dihydropyrazolo[1,5-a]pyrazine-2-carboxamide (enantiomer2)] | 5.7 nM

Row | Structure (SMILES) | IC50
20 | CC(C)c1c(C(=O)NC2(c3ccc(F)cc3)CN(C)C2)nn2cc(-c3ccc(Cl)c(F)c3)[nH]c(=O)c12 [6-538] | 2.77 nM
21 | CC(C)C(CNC(=O)c1cc2c(=O)[nH]c(-c3ccc4ccccc4c3)cn2n1)n1cc(Cl)cn1 (centres unmarked) [Example 2-22, N-[2-(4-Chlor-1H-pyrazol-1-yl)-3-methylbutyl]-6-(2-naphthyl)-4-oxo-4,5-dihydropyrazolo[1,5-a]pyrazine-2-carboxamide] | 3.85 nM
22 | CC(NC(=O)c1cc2c(=O)[nH]c(-c3ccc4ccccc4c3)cn2n1)c1ccc(Cl)c(Cl)c1 (centres unmarked) [Example 2-36, N-[1-(3,4-Dichlorphenyl)ethyl]-6-(2-naphthyl)-4-oxo-4,5-dihydropyrazolo[1,5-a]pyrazine-2-carboxamide] | 2.8 nM
23 | Cc1ccc(-c2cn3nc(C(=O)NC4(C)CCC4)cc3c(=O)[nH]2)cc1C [Example 5-5, 6-(3,4-Dimethylphenyl)-N-(1-methylcyclobutyl)-4-oxo-4,5-dihydropyrazolo[1,5-a]pyrazine-2-carboxamide] | 6.7 nM
24 | O=C(N[C@H](CCO)c1ccc(F)cc1)c1nn2cc(-c3ccc4ccccc4c3)[nH]c(=O)c2c1C(F)(F)F [Example 1-17, N-[(1R)-1-(4-Fluorophenyl)-3-hydroxpropyl]-6-(naphthalen-2-yl)-4-oxo-3-(trifluoromethyl)-4,5-dihydropyrazolo[1,5-a]pyrazine-2-carboxamide] | 0.575 nM
25 | Cc1c(C(=O)NCc2cccc(CN3CCCC3)c2)nn2c(C)c(-c3ccc4ccccc4c3)[nH]c(=O)c12 [Example 3-36, 3,7-Dimethyl-6-(naphthalen-2-yl)-4-oxo-N-({3-[(pyrrolidin-1-yl)methyl]phenyl}methyl)-4,5-dihydropyrazolo[1,5-a]pyrazine-2-carboxamide] | 6.55 nM
26 | O=C(NCCc1cccc(F)c1)c1cc2c(=O)[nH]c(-c3ccc4ccccc4c3)cn2n1 [Example 2-52, N-[2-(3-Fluorophenyl)ethyl]-6-(2-naphthyl)-4-oxo-4,5-dihydropyrazolo[1,5-a]pyrazine-2-carboxamide] | 4.4 nM
27 | Cc1cc(-c2cn3nc(C(=O)NC(C)C4CCC4)c(C(F)(F)F)c3c(=O)[nH]2)ccc1Cl (single isomer, unassigned) [6-224] | 2 nM
28 | Cc1cc(-c2cn3nc(C(=O)NC(c4ccc(F)cc4)C4(O)CC4)c(C(F)(F)F)c3c(=O)[nH]2)ccc1Cl (single isomer, unassigned) [6-211] | 1.18 nM
29 | Cc1ccc(-c2cn3nc(C(=O)NCC(O)C(F)(F)F)c(C4CC4)c3c(=O)[nH]2)cc1F (racemic) [Example 1-159, 3-Cyclopropyl-6-(3-fluoro-4-methylphenyl)-4-oxo-N-(3,3,3-trifluoro-2-hydroxpropyl)-4,5-dihydro-pyrazolo[1,5-a]pyrazine-2-carboxamide (racemate)] | 2 nM
30 | CC(NC(=O)c1nn2cc(-c3ccc4ccccc4c3)[nH]c(=O)c2c1C#N)c1ccc(F)cc1 (centres unmarked) [Example 3-52, 3-Cyano-N-[1-(4-fluorophenyl)ethyl]-6-(2-naphthyl)-4-oxo-5H-pyrazolo[1,5-a]pyrazine-2-carboxamide] | 2.25 nM
31 | O=C(NCC(O)(C(F)(F)F)C(F)(F)F)c1nn2cc(-c3ccc(Cl)c(F)c3)[nH]c(=O)c2c1C1CC1 [6-88] | 4.55 nM
32 | CC(NC(=O)c1cc2c(=O)[nH]c(-c3ccc4ccccc4c3)cn2n1)c1ccc(S(N)(=O)=O)cc1 (centres unmarked) [Example 2-37, 6-(2-Naphthyl)-4-oxo-N-[1-(4-sulfamoylphenyl)ethyl]-4,5-dihydropyrazolo[1,5-a]pyrazine-2-carboxamide] | 4.5 nM
33 | CC(NC(=O)c1nn2cc(-c3ccc4ccccc4c3)[nH]c(=O)c2c1C#N)c1ccc(Cl)c(Cl)c1 (centres unmarked) [Example 3-54, 3-Cyano-N-[1-(3,4-dichlorophenyl)ethyl]-6-(2-naphthyl)-4-oxo-5H-pyrazolo[1,5-a]pyrazine-2-carboxamide] | 6.95 nM
34 | Cc1c(C(=O)N[C@@H](CO)c2ccccc2)nn2c(C)c(-c3ccc4ccccc4c3)[nH]c(=O)c12 [Example 3-71, N-[(1R)-2-Hydroxy-1-phenylethyl]-3,7-dimethyl-6-(naphthalen-2-yl)-4-oxo-4,5-dihydropyrazolo[1,5-a]pyrazine-2-carboxamide] | 9.45 nM
35 | O=C(NCCc1ccccc1)c1cc2c(=O)[nH]c(-c3ccc4ccccc4c3)cn2n1 [6-14] | 8.25 nM
36 | Cc1cc(-c2cn3nc(C(=O)N[C@@H](c4ccc(F)cc4)C(C)(C)O)c(C4CC4)c3c(=O)[nH]2)ccc1Cl [Example 1-173, 6-(4-Chloro-3-methylphenyl)-3-cyclopropyl-N-[(1S)-1-(4-fluorophenyl)-2-hydroxy-2-methylpropyl]-4-oxo-4,5-dihydropyrazolo[1,5-a]pyrazine-2-carboxamide] | 0.73 nM
37 | C[C@H](NC(=O)c1nn2cc(-c3cc(F)c(Cl)c(F)c3)[nH]c(=O)c2c1C1CC1)C1CC1 [6-472] | 1.16 nM
38 | CN1CC(NC(=O)c2nn3cc(-c4cc(F)c(Cl)c(F)c4)[nH]c(=O)c3c2C2CC2)(c2ccc(F)cc2)C1 [6-471] | 1.8 nM
